The first series is described as follows: Measurement of logP values by HPLC on reversed phase columns (EEC directive 79/831 Annex V.A8). The settings on record: method [a]. The format is physicochemical.
Take `CCc1nc(C)sc1C(=O)Nc1cccc2c1CCC(C)C2C` (mixture of isomers) [Example 36]: the “LogP^[a]” value is 3.87^[a]. With `CC1CCC(C)(C)c2cccc(NC(=O)c3cn(C)nc3C(F)F)c21` (racemic) [Example 17], the “LogP^[a]” value is 3.44^[a]. Still for that read-out and setting: in the case of `CCON=C1CCCc2c(NC(=O)c3ccsc3I)cccc21` [Example 84] it was 3.83^[a]; in that of `Cc1nc(C(F)F)c(C(=O)Nc2cccc3c2CC(C)(C)CC3)s1` [Example 25], 3.72^[a].

As to `CC1c2cccc(NC(=O)c3cn(C)nc3C(F)F)c2CCC1(C)C` (racemic) [Example 22], the “LogP^[a]” value was 3.68^[a].

For the compound `Cc1nn(C)c(F)c1C(=O)Nc1cccc2c1CCC(C)(C)C2C` (racemic) [Example 21], the “LogP^[a]” value is 3.70^[a].

As for `CC1CCc2c(NC(=O)c3cn(C)nc3C(F)F)cccc2C1(C)C` (racemic) [Example 1], the “LogP^[a]” value was 3.60^[a]. `CCON=C1CCCc2c(NC(=O)c3ccsc3Br)cccc21` [Example 77]: the “LogP^[a]” value was 3.87^[a].

For `CON=C1CCCc2c(NC(=O)c3ccsc3I)cccc21` [Example 56], the “LogP^[a]” value is 3.37^[a].

As to `Cn1cc(C(=O)Nc2cccc3c2CC(C)(C)CC3)c(C(F)F)n1` [Example 5], the “LogP^[a]” value is 3.25^[a]. Take `CON=C1CCCc2c(NC(=O)c3ccsc3Br)cccc21` [Example 49]: the “LogP^[a]” value is 3.37^[a]. For the compound `C=C1c2cccc(NC(=O)c3cn(C)nc3C(F)F)c2CCC1(C)C` [Example 10], the “LogP^[a]” value was 3.48^[a]. Turning to `CC1(C)CCCc2c(NC(=O)c3ccoc3C(F)F)ccc(F)c21` [Example 51], the “LogP^[a]” value was 4.06^[a].

For `CC1CCc2cccc(NC(=O)c3cn(C)nc3C(F)F)c2C1C` (mixture of isomers) [Example 15], the “LogP^[a]” value is 3.21^[a]. Consider `CC1(C)CCc2c(cccc2NC(=O)C2=C(C(F)(F)F)OCCS2)C1` [Example 69], for which the “LogP^[a]” value was 3.99^[a]. Turning to `CCON=C1CCCc2c(NC(=O)C3=C(C(F)(F)F)OCCS3)cccc21` [Example 74], the “LogP^[a]” value is 3.63^[a]. Regarding `Cn1cc(C(=O)Nc2cccc3c2CCCC3)c(C(F)(F)F)n1` [Example 28], the “LogP^[a]” value is 2.92^[a]. The same measure, in the same setting: in the case of `Cn1cc(C(=O)Nc2cccc3c2CCC(C)(C)C3)c(C(F)F)n1` [Example 43] it was 3.35^[a].

Turning to `C=C1c2cccc(NC(=O)c3sc(C)nc3CC)c2CCC1(C)C` [Example 8], the “LogP^[a]” value is 3.99^[a]. Turning to `Cn1cc(C(=O)Nc2cccc3c2CCCC3(C)C)c(C(F)F)n1` [Example 4], the “LogP^[a]” value was 3.26^[a]. Regarding `CCc1nc(C)sc1C(=O)Nc1ccc(F)c2c1CCCC2(C)C` [Example 59], the “LogP^[a]” value is 3.85^[a].

In the case of `CC1(C)CCc2c(cccc2NC(=O)c2nccnc2C(F)(F)F)C1` [Example 68], the “LogP^[a]” value is 3.99^[a]. For the compound `CON=C1CCCc2c(NC(=O)c3ccoc3C(F)F)cccc21` [Example 53], the “LogP^[a]” value was 3.25^[a].

With `CCON=C1CCCc2c(NC(=O)c3sc(C)nc3C(F)F)cccc21` [Example 80], the “LogP^[a]” value is 3.37^[a]. Consider `CCON=C1CCCc2c(NC(=O)c3c(C)nn(C)c3C)cccc21` [Example 41], for which the “LogP^[a]” value was 2.58^[a]. As to `CON=C1CCCc2c(NC(=O)c3c(C)nn(C)c3F)cccc21` [Example 39], the “LogP^[a]” value is 2.47^[a].

Take `CON=C1CCCc2c(NC(=O)c3nccnc3C(F)(F)F)cccc21` [Example 55]: the “LogP^[a]” value was 3.08^[a].

On to `Cc1nn(C)c(C)c1C(=O)Nc1cccc2c1CC(C)(C)CC2` [Example 23], for which the “LogP^[a]” value was 2.90^[a]. Regarding `CON=C1CCCc2c(NC(=O)C3=C(C(F)(F)F)OCCS3)cccc21` [Example 76], the “LogP^[a]” value was 3.21^[a].

The same series, now with this note: pH 2.7.
The term chromatographic logP denotes a lipophilicity value derived from retention on a column. Read a low chromatographic logP as a more hydrophilic compound. As to `Cc1nn(C)c(F)c1C(=O)Nc1cccc2c1CCCC2(C)C` [Example 2, N-(5,5-dimethyl-5,6,7,8-tetrahydronaphthalen-1-yl)-5-fluoro-1,3-dimethyl-1H-pyrazole-4-carboxamide], the chromatographic logP came out at 3.23.

Source of the values: patent US9630943B2, “Tetrahydronaphthyl(thio) carboxamides” (BAYER CROPSCIENCE AG, priority 2012, dated 2017).
